Measurements: patent US20260055103A1, “2,3,4,9-TETRAHYDRO-1H-PYRIDO[3,4-B]INDOLE DERIVATIVES AS ESTROGEN RECEPTOR MODULATORS FOR THE TREATMENT OF CANCER” (Olema Pharmaceuticals, Inc., priority 2022, published 2026)

molecular target: T1, estrogen receptor (Homo sapiens, UniProt P03372); assay: Alkaline phosphatase (AP) assay in ECC-1 cells, agonist mode (no E2) and antagonist mode (500 pM E2); format: cell-based; settings: 3 days, AP activity normalized to 500 pM E2 alone, agonist mode without E2, antagonist mode with 500 pM E2
T1 construct: endogenous in cells; host or cells: ECC-1 cells
T1 sequence (P03372 1-595): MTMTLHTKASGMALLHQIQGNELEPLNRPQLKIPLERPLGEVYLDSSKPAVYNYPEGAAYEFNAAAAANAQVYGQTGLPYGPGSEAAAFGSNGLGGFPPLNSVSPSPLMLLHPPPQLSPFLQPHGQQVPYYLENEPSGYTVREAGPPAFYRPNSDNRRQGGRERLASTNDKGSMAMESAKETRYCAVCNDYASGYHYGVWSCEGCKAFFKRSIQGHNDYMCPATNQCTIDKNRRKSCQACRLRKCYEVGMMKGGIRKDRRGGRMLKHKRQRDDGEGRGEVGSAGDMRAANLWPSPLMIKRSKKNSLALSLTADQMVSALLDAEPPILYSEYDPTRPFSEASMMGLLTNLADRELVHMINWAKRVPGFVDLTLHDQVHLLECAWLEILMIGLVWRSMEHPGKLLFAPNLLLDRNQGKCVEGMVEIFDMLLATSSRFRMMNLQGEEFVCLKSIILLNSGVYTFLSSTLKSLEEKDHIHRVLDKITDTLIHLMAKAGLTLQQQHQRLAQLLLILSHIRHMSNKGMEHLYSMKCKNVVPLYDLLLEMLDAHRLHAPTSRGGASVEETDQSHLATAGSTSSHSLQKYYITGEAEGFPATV
Summary of the method: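 ECC-1 cells in hormone-depleted medium treated 3 days with compound alone (agonist mode) or with 500 pM E2 (antagonist mode). Alkaline phosphatase read by p-nitrophenyl phosphate hydrolysis, 40 min at 42° C, A405. Activity normalized to 500 pM E2 alone.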

SMILES | Activity (estrogen receptor modulation, agonism and antagonism)
C[C@@H]1Cc2c([nH]c3ccccc23)[C@@H](c2ccc(CC3CN(CCCF)C3)s2)N1CC(C)(C)F [Example I-2, 3-({5-[(1S,3R)-2-(2-fluoro-2-methylpropyl)-3-methyl-1H,2H,3H,4H,9H-pyrido[3,4-b]indol-1-yl]thiophen-2-yl}methyl)-1-(3-fluoropropyl)azetidine] | ++ (estrogen receptor antagonism having (i) between 10% and 80% increase in the E2-normalized signal in the AP assay (agonist mode) and (ii) between 10% and 80% reduction in the E2-normalized signal in the AP assay (antagonist mode))
C[C@@H]1Cc2c([nH]c3ccccc23)[C@@H](c2cnc(CC3CN(CCCF)C3)s2)N1CC(F)(F)F [Example I-38, 2-[[1-(3-fluoropropyl)azetidin-3-yl]methyl]-5-[(1S,3R)-3-methyl-2-(2,2,2-trifluoroethyl)-1,3,4,9-tetrahydropyrido[3,4-b]indol-1-yl]thiazole] | ++ (estrogen receptor antagonism having (i) between 10% and 80% increase in the E2-normalized signal in the AP assay (agonist mode) and (ii) between 10% and 80% reduction in the E2-normalized signal in the AP assay (antagonist mode))
C[C@@H]1Cc2c([nH]c3ccccc23)[C@@H](c2ccc(C3CCN(CCF)CC3)s2)N1CC(C)(C)F [Example I-68, (1S,3R)-1-[5-[1-(2-fluoroethyl)-4-piperidyl]-2-thienyl]-2-(2-fluoro-2-methyl-propyl)-3-methyl-1,3,4,9-tetrahydropyrido[3,4-b]indole] | ++ (estrogen receptor antagonism having (i) between 10% and 80% increase in the E2-normalized signal in the AP assay (agonist mode) and (ii) between 10% and 80% reduction in the E2-normalized signal in the AP assay (antagonist mode))
CCCN1CC(Cc2ccc([C@@H]3c4[nH]c5ccccc5c4C[C@@H](C)N3CC(C)(C)F)s2)C1 [Example I-1, 3-({5-[(1S,3R)-2-(2-fluoro-2-methylpropyl)-3-methyl-1H,2H,3H,4H,9H-pyrido[3,4-b]indol-1-yl]thiophen-2-yl}methyl)-1-propylazetidine] | ++ (estrogen receptor antagonism having (i) between 10% and 80% increase in the E2-normalized signal in the AP assay (agonist mode) and (ii) between 10% and 80% reduction in the E2-normalized signal in the AP assay (antagonist mode))
C[C@@H]1Cc2c([nH]c3ccccc23)[C@@H](c2ccc(CC3CN(CC4COC4)C3)s2)N1CC(C)(C)F [Example I-24, (1S,3R)-2-(2-fluoro-2-methylpropyl)-3-methyl-1-(5-((1-(oxetan-3-ylmethyl)azetidin-3-yl)methyl)thiophen-2-yl)-2,3,4,9-tetrahydro-1H-pyrido[3,4-b]indole] | ++ (estrogen receptor antagonism having (i) between 10% and 80% increase in the E2-normalized signal in the AP assay (agonist mode) and (ii) between 10% and 80% reduction in the E2-normalized signal in the AP assay (antagonist mode))
C[C@@H]1CCN(CCCc2ccc([C@@H]3c4[nH]c5ccccc5c4C[C@@H](C)N3CC(C)(C)F)s2)C1 [Example I-26, (3R)-1-(3-{5-[(1S,3R)-2-(2-fluoro-2-methylpropyl)-3-methyl-1H,2H,3H,4H,9H-pyrido[3,4-b]indol-1-yl]thiophen-2-yl}propyl)-3-methylpyrrolidine] | ++ (estrogen receptor antagonism having (i) between 10% and 80% increase in the E2-normalized signal in the AP assay (agonist mode) and (ii) between 10% and 80% reduction in the E2-normalized signal in the AP assay (antagonist mode))
C#CCN1CC(Cc2ccc([C@@H]3c4[nH]c5ccccc5c4C[C@@H](C)N3CC(F)(F)CO)s2)C1 [Example I-60, 2,2-difluoro-3-[(1S,3R)-3-methyl-1-[5-[(1-prop-2-ynylazetidin-3-yl)methyl]-2-thienyl]-1,3,4,9-tetrahydropyrido[3,4-b]indol-2-yl]propan-1-ol] | ++ (estrogen receptor antagonism having (i) between 10% and 80% increase in the E2-normalized signal in the AP assay (agonist mode) and (ii) between 10% and 80% reduction in the E2-normalized signal in the AP assay (antagonist mode))
C[C@@H]1Cc2c([nH]c3ccccc23)[C@@H](c2cnc(C[C@@H]3CCN(CCCF)C3)s2)N1CC(C)(C)F [Example I-43] | ++ (estrogen receptor antagonism having (i) between 10% and 80% increase in the E2-normalized signal in the AP assay (agonist mode) and (ii) between 10% and 80% reduction in the E2-normalized signal in the AP assay (antagonist mode))
C[C@@H]1Cc2c([nH]c3ccccc23)[C@@H](c2sc(CC3CN(CCCF)C3)cc2F)N1CC(C)(C)F [Example I-12, 3-({4-fluoro-5-[(1S,3R)-2-(2-fluoro-2-methylpropyl)-3-methyl-1H,2H,3H,4H,9H-pyrido[3,4-b]indol-1-yl]thiophen-2-yl}methyl)-1-(3-fluoropropyl)azetidine] | ++ (estrogen receptor antagonism having (i) between 10% and 80% increase in the E2-normalized signal in the AP assay (agonist mode) and (ii) between 10% and 80% reduction in the E2-normalized signal in the AP assay (antagonist mode))
C[C@@H]1Cc2c([nH]c3ccccc23)[C@@H](c2ccc(CC3CN(CCCF)C3)s2)N1CC(F)(F)C(F)(F)F [Example I-28, (1S,3R)-1-(5-((1-(3-fluoropropyl)azetidin-3-yl)methyl)thiophen-2-yl)-3-methyl-2-(2,2,3,3,3-pentafluoropropyl)-2,3,4,9-tetrahydro-1H-pyrido[3,4-b]indole] | ++ (estrogen receptor antagonism having (i) between 10% and 80% increase in the E2-normalized signal in the AP assay (agonist mode) and (ii) between 10% and 80% reduction in the E2-normalized signal in the AP assay (antagonist mode))
C[C@@H]1Cc2c([nH]c3ccccc23)[C@@H](c2cnc(NC3CN(CCCF)C3)s2)N1CC(F)(F)CO [Example I-63, 2,2-difluoro-3-[(1S,3R)-1-[2-[[1-(3-fluoropropyl)azetidin-3-yl]amino]thiazol-5-yl]-3-methyl-1,3,4,9-tetrahydropyrido[3,4-b]indol-2-yl]propan-1-ol] | ++ (estrogen receptor antagonism having (i) between 10% and 80% increase in the E2-normalized signal in the AP assay (agonist mode) and (ii) between 10% and 80% reduction in the E2-normalized signal in the AP assay (antagonist mode))
C[C@@H]1Cc2c([nH]c3ccccc23)[C@@H](c2ccc(CC3CN(CCCF)C3)s2)N1CC(F)(F)F [Example I-20, 1-(3-fluoropropyl)-3-({5-[(1S,3R)-3-methyl-2-(2,2,2-trifluoroethyl)-1H,2H,3H,4H,9H-pyrido[3,4-b]indol-1-yl]thiophen-2-yl}methyl)azetidine] | ++ (estrogen receptor antagonism having (i) between 10% and 80% increase in the E2-normalized signal in the AP assay (agonist mode) and (ii) between 10% and 80% reduction in the E2-normalized signal in the AP assay (antagonist mode))
C[C@@H]1Cc2c([nH]c3ccccc23)[C@@H](c2cnc(C[C@@H]3CCN(CCC(F)F)C3)s2)N1CC(C)(C)F [Example I-51, 2-[[(3S)-1-(3,3-difluoropropyl)pyrrolidin-3-yl]methyl]-5-[(1S,3R)-2-(2-fluoro-2-methyl-propyl)-3-methyl-1,3,4,9-tetrahydropyrido[3,4-b]indol-1-yl]thiazole] | + (estrogen receptor agonism having (i) at least 80% increase in the E2-normalized signal in the AP assay (agonist mode) and (ii) no more than 80% reduction in the E2-normalized signal in the AP assay (antagonist mode))
C[C@@H]1Cc2c([nH]c3ccccc23)[C@@H](c2ncc(CC3CN(CCCF)C3)s2)N1CC(C)(C)F [Example I-4, 2-[(1S,3R)-2-(2-fluoro-2-methylpropyl)-3-methyl-1H,2H,3H,4H,9H-pyrido[3,4-b]indol-1-yl]-5-{[1-(3-fluoropropyl)azetidin-3-yl]methyl}-1,3-thiazole] | + (estrogen receptor agonism having (i) at least 80% increase in the E2-normalized signal in the AP assay (agonist mode) and (ii) no more than 80% reduction in the E2-normalized signal in the AP assay (antagonist mode))
C[C@@H]1Cc2c([nH]c3ccccc23)[C@@H](c2cnc(CC3CN(CCCF)C3)s2)N1CC(C)(C)F [Example I-14, 5-[(1S,3R)-2-(2-fluoro-2-methylpropyl)-3-methyl-1H,2H,3H,4H,9H-pyrido[3,4-b]indol-1-yl]-2-{[1-(3-fluoropropyl)azetidin-3-yl]methyl}-1,3-thiazole] | ++ (estrogen receptor antagonism having (i) between 10% and 80% increase in the E2-normalized signal in the AP assay (agonist mode) and (ii) between 10% and 80% reduction in the E2-normalized signal in the AP assay (antagonist mode))
